Literature values as cited in patent US5413915A (priority 1991, dated 1995).
Marks after values point to notes of the source that are not given here.

Tests used:
[1] = system: Salmonella typhimurium; settings: cited from earlier work
[2] = in vivo; cited from earlier work
[3] = in vivo; cited from earlier work; remark: listed apart in the source

Row | SMILES | Mutagenicity [1] | Tumorigen Activity [2] | Teratogen Activity [3] | Tumorigen Activity, assignment based on IARC reports [2] | Tumorigen Activity, assignment based on NCI/NTP carcinogenesis bioassay results [2] | Carcinogenic Status [2]
1 | BrCCBr [1,2-Dibromoethane] | + | + | - |  |  | 
2 | CCCCO [1-Butanol] | - | - | - |  |  | 
3 | O=C(O)COc1ccc(Cl)cc1Cl [2,4-D] | - |  | + | + | - | 
4 | CC(C)O [2-Propanol] | - | - | - | + |  | 
5 | O=c1cc(-c2ccccc2)oc2ccc3ccccc3c12 [5,6-Naphthoflavone] | - | - | - |  |  | 
6 | CCc1cccc(CC)c1N(COC)C(=O)CCl [Alachlor (ind.), Alachlor] | - | - | - |  |  | 
7 | O=C1O[C@H]([C@@H](O)CO)C(O)=C1O [Ascorbate] | + | - | + |  |  | Negative
8 | CCC1(CC)C(=O)NC(=O)NC1=O [Barbital] | - | - | - |  |  | 
9 | ClC(Cl)Cl [CHCl3] | + | + | + |  |  | 
10 | S=C=S [CS2] | + | - | + |  |  | 
11 | CNC(=O)Oc1cccc2ccccc12 [Carbaryl (ind.), Carbaryl] |  | + | + |  |  | 
12 | CNC(=O)Oc1cccc2c1OC(C)(C)C2 [Carbofuran (ind.), Carbofuran] | + | - | - |  |  | 
13 | O=C(O)CC(O)(CC(=O)O)C(=O)O [Citrate] |  | - | - |  |  | 
14 | CCNc1nc(Cl)nc(NC(C)(C)C#N)n1 [Cyanazine (ind.), Cyanazine] | + | - | - |  |  | 
15 | COc1c(Cl)ccc(Cl)c1C(=O)O [Dicamba (ind.), Dicamba] | + | - | - |  |  | 
16 | ClC1=C(Cl)[C@]2(Cl)[C@@H]3[C@@H]4C[C@@H]([C@H]5O[C@@H]45)[C@@H]3[C@@]1(Cl)C2(Cl)Cl [Dieldrin] | + | +^e | + |  |  | 
17 | CN(C)C=O [Dimethylformamide] | + | - | - |  |  | 
18 | C[S+](C)[O-] [Dimethylsulfoxide] | - | - | + |  |  | 
19 | O=C(O)CN(CCN(CC(=O)O)CC(=O)O)CC(=O)O [EDTA] | - | - | + |  |  | 
20 | CCO [Ethanol] | - | - | + |  |  | 
21 | CCOC(C)=O [Ethyl Acetate] | - | - | - |  |  | 
22 | OCC(O)CO [Glycerol] |  | - | - |  |  | 
23 | CCOP(=S)(NC(C)C)Oc1ccccc1C(=O)OC(C)C (stereo not drawn) [Isofenphos (ind.), Isofenphos] | - | - | - |  |  | 
24 | CCOP(=S)(OCC)Oc1nc(Cl)n(C(C)C)n1 [Isozofos (ind.), Isozofos] | -? | -? | -? |  |  | 
25 | c1ccc2ccccc2c1 [Naphthalene] |  | +/- | + |  |  | 
26 | Cn1c(=O)c2[nH]cnc2n(C)c1=O [Theophylline] |  | - | + |  |  | 
27 | Cc1ccccc1 [Toluene] |  | - | + |  |  | 
